Test results as given in patent US7538241B2, “Hsp90 family protein inhibitors” (Kyowa Hakko Kogyo Co., Ltd., priority 2003, dated 2009).

Test system: human mammary cancer-derived KPL-4 cells
Experiment: Cell growth inhibition test with KPL-4 cells (WST-1)
Type: cell-based
Settings: KPL4, 72 hours, read-out: 50% growth inhibition concentration (GI50)
Procedure: In a 96-well plate (Nunc), human mammary cancer-derived KPL-4 cells were sown in an amount of 2000 cells/well, and pre-incubated in 10% fetal calf serum (FCS)-containing Dulbecco Modified Eagle Medium (DMEM) (incubation medium) in a 5% carbon dioxide incubator at 37° C. for 24 hours. A dimethylsulfoxide (DMSO) solution of a test compound controlled at 10 mmol/L was stepwise diluted with the incubation medium, and added to each well in a total amount of 100 μL/well, and incubated in the 5% carbon dioxide incubator at 37° C. for 72 hours. After the incubation, WST-1 {4-[3-(4-Iodophenyl)-2-(4-nitrophenyl)-2H-5-tetrazolio]-1,3-benzene disulfonate}-labeled mixture (Rosh Diagnostic) diluted 2-fold with the incubation medium was added thereto in an amount of 20 μL/well, and incubated in the 5% carbon dioxide incubator at 37° C. for 1 hour. Using a microplate spectrophotometer (Biorad's Model 550), the absorbance at 450 nm and 655 nm of each well was measured. The cell growth inhibition activity of the test compound was indicated by the 50% growth inhibition concentration (GI50) thereof. A method of calculating GI50 is described. The absorbance at 655 nm of each well was subtracted from the absorbance at 450 nm thereof to give a value (absorbance difference). The absorbance difference obtained with the cells without being treated with the test compound was taken as 100%, and this was compared with the absorbance difference obtained with the cells treated with the test compound to give the concentration of the compound for 50% cell growth inhibition, and this is referred to as GI50.

Row | Compound | GI50 [µM]
1 | CCc1c(O)cc(O)c(-c2ccccc2)c1CC(O)C(O)CO (stereo not drawn) [Compound 180, 6-Ethyl-4-phenyl-5-(2,3,4-trihydroxybutyl)benzene-1,3-diol] | ≤ 50
2 | CCc1c(O)cc(O)c(-c2ccccc2)c1CCC(O)C(O)CO (stereo not drawn) [Compound 181, 6-Ethyl-4-phenyl-5-(3,4,5-trihydroxypentyl)benzene-1,3-diol] | ≤ 50
3 | CCc1c(O)cc(O)c(-c2ccccc2)c1CC(O)CO (stereo not drawn) [Compound 182, 6-Ethyl-5-(2,3-dihydroxypropyl)-4-phenylbenzene-1,3-diol] | ≤ 50
4 | CCc1c(O)cc(O)c(-c2ccccc2)c1CCOC1OC(CO)C(O)C(O)C1O (stereo not drawn) [Compound 183, 6-Ethyl-4-phenyl-5-{2-[3,4,5-trihydroxy-6-(hydroxymethyl)tetrahydropyran-2-yloxy]ethyl}benzene-1,3-diol] | ≤ 50
5 | CCc1c(O)cc(O)c(-c2ccccc2)c1CCC(O)C(CO)CO (stereo not drawn) [Compound 185, 6-Ethyl-5-[3,5-dihydroxy-4-(hydroxymethyl)pentyl]-4-phenylbenzene-1,3-diol] | ≤ 50
6 | CCc1c(O)cc(O)c(-c2ccccc2)c1CCOCc1cccnc1 [Compound 188, 6-Ethyl-4-phenyl-5-[2-(pyridin-3-ylmethoxy)ethyl]benzene-1,3-diol] | ≤ 50
7 | CCc1c(O)cc(O)c(-c2cccc(OCc3ccccn3)c2)c1CCOCC(O)CO (stereo not drawn) [Compound 190, 5-[2-(2,3-Dihydroxypropoxy)ethyl]-6-ethyl-4-[3-(pyridin-2-ylmethyloxy)phenyl]benzene-1,3-diol] | ≤ 50
8 | CCc1c(O)cc(O)c(-c2cccc(OCc3cccnc3)c2)c1CCOCC(O)CO (stereo not drawn) [Compound 191, 5-[2-(2,3-Dihydroxypropoxy)ethyl]-6-ethyl-4-[3-(pyridin-3-ylmethyloxy)phenyl]benzene-1,3-diol] | ≤ 50
9 | CCc1c(O)cc(O)c(-c2cccc(OCc3ccncc3)c2)c1CCOCC(O)CO (stereo not drawn) [Compound 192, 5-[2-(2,3-Dihydroxypropoxy)ethyl]-6-ethyl-4-[3-(pyridin-4-ylmethyloxy)phenyl]benzene-1,3-diol] | ≤ 50
10 | CCc1c(O)cc(O)c(-c2cccc(OCc3csc(C)n3)c2)c1CCOCC(O)CO (stereo not drawn) [Compound 193, 5-[2-(2,3-Dihydroxypropoxy)ethyl]-6-ethyl-4-[3-(2-methyl-1,3-thiazol-4-ylmethyloxy)phenyl]benzene-1,3-diol] | ≤ 50
11 | CCc1c(O)cc(O)c(-c2cccc(OCCO)c2)c1CCOCC(O)CO (stereo not drawn) [Compound 194, 5-[2-(2,3-Dihydroxypropoxy)ethyl]-6-ethyl-4-[3-(2-hydroxyethoxy)phenyl]benzene-1,3-diol] | ≤ 50
12 | CCOC(=O)CCc1ccc(-c2c(O)cc(O)cc2COCc2ccccc2)o1 [Compound 236, Ethyl 3-{5-[6-(benzyloxymethyl)-2,4-dihydroxyphenyl]furan-2-yl}propanoate] | ≤ 50
13 | COC(=O)CCc1ccc(-c2c(O)cc(O)cc2C(OC)c2ccccc2)o1 (stereo not drawn) [Compound 237, Methyl 3-{5-[2,4-dihydroxy-6-(1-methoxy-1-phenylmethyl)phenyl]furan-2-yl}propanoate] | ≤ 50
14 | CCN(CC)C(=O)Cc1c(Br)c(O)cc(O)c1-c1ccco1 [Compound 241, 2-[2-Bromo-6-(furan-2-yl)-3,5-dihydroxyphenyl]-N,N-diethylacetamide] | ≤ 50
15 | COc1cc(NC(=O)Cc2c(Br)c(O)cc(O)c2-c2ccco2)cc(OC)c1 [Compound 242, 2-[2-Bromo-6-(furan-2-yl)-3,5-dihydroxyphenyl]-N-(3,5-dimethoxyphenyl)acetamide] | ≤ 50
16 | COCCc1c(Br)c(O)cc(O)c1-c1ccco1 [Compound 243, 6-Bromo-4-(furan-2-yl)-5-(2-methoxyethyl)benzene-1,3-diol] | ≤ 50
17 | CCc1c(O)cc(O)c(-c2ccco2)c1CCOC [Compound 244, 6-Ethyl-4-(furan-2-yl)-5-(2-methoxyethyl)benzene-1,3-diol] | ≤ 50
18 | CCc1c(O)cc(O)c(-c2ccco2)c1CC(=O)N(C)CCOC [Compound 257, 2-[2-Ethyl-6-(furan-2-yl)-3,5-dihydroxyphenyl]-N-(2-methoxyethyl)-N-methylacetamide] | ≤ 50
19 | COC(=O)CCc1ccc(-c2c(O)cc(O)cc2CC(=O)OC)o1 [Compound 260, Methyl 3-{5-[2,4-dihydroxy-6-(methoxycarbonylmethyl)phenyl]furan-2-yl}propanoate] | ≤ 50
20 | COC(=O)CCc1ccc(-c2c(O)cc(O)c(Br)c2CC(=O)OC)o1 [Compound 267, Methyl 3-{5-[5-bromo-2,4-dihydroxy-6-(methoxycarbonylmethyl)phenyl]furan-2-yl}propanoate] | ≤ 50
21 | COC(=O)Cc1cc(O)cc(O)c1-c1ccc2c(c1)OCO2 [Compound 273, Methyl 2-(1,3-benzodioxolan-5-yl)-3,5-dihydroxyphenylacetate] | ≤ 50
22 | CCc1cc(-c2n[nH]c3ccc([N+](=O)[O-])cc23)c(O)cc1O [Compound 277, 6-Ethyl-4-(5-nitro-1H-indazol-3-yl)benzene-1,3-diol] | ≤ 50
23 | CCc1cc(-c2nc3ccccc3[nH]2)c(O)cc1O [Compound 278, 4-Benzimidazol-2-yl-6-ethylbenzene-1,3-diol] | ≤ 50
24 | CCc1cc(-c2nc3ccccc3n2-c2ccccc2)c(O)cc1O [Compound 279, 6-Ethyl-4-(1-phenylbenzimidazol-2-yl)benzene-1,3-diol] | ≤ 50
25 | CCc1c(O)cc(O)c(-c2ncc(-c3ccccc3)o2)c1CC(=O)OC [Compound 329, Methyl 2-ethyl-3,5-dihydroxy-6-(5-phenyl-1,3-oxazol-2-yl)phenylacetate] | ≤ 50
26 | CCc1c(O)cc(O)c(-c2n[nH]c3cc(OC)ccc23)c1CCOCC(O)CO (stereo not drawn) [Compound 330, 5-[2-(2,3-Dihydroxypropoxy)ethyl]-6-ethyl-4-(6-methoxy-1H-indazol-3-yl)benzene-1,3-diol] | ≤ 50

Test system: human chronic myelocytic leukemia-derived K562 cells
Experiment: Cell growth inhibition test with K562 cells (WST-1)
Type: cell-based
Settings: 72 hours, read-out: 50% growth inhibition concentration (GI50)
Procedure: In a 96-well plate (Nunc), human chronic myelocytic leukemia-derived K562 cells were sown in an amount of 1500 cells/well, and pre-incubated in 10% FCS-containing Rosewell Park Memorial Institute's Medium (RPMI) 1640 (Nissui) (incubation medium) in a 5% carbon dioxide incubator at 37° C. for 5 hours. Next, a DMSO solution of a test compound controlled at 10 mmol/L was stepwise diluted with the incubation medium, and added to each well in a total amount of 100 μL/well, and further incubated in the 5% carbon dioxide incubator at 37° C. for 72 hours. After the incubation, WST-1-labeled mixture (Rosh Diagnostic) diluted 2-fold with the incubation medium was added thereto in an amount of 20 μL/well, and incubated in the 5% carbon dioxide incubator at 37° C. for 2 hours. Using a microplate spectrophotometer (Biorad's Model 550), the absorbance at 450 nm and 655 nm of each well was measured. The cell growth inhibition activity of the test compound was indicated by the 50% growth inhibition concentration (GI50) thereof, like in Test Example 2.

Row | Compound | GI50 [µM]
27 | CCc1c(O)cc(O)c(-c2ccccc2)c1CCC(O)CC(O)CO (stereo not drawn) [Compound 170, 6-Ethyl-4-phenyl-5-(3,5,6-trihydroxyhexyl)benzene-1,3-diol] | ≤ 50
28 | CCc1c(O)cc(O)c(-c2cccc(OCCN3CCOCC3)c2)c1CCOCC(O)CO (stereo not drawn) [Compound 195, 5-[2-(2,3-Dihydroxypropoxy)ethyl]-6-ethyl-4-[3-(2-morpholinoethoxy)phenyl]benzene-1,3-diol] | ≤ 50
29 | CCc1c(O)cc(O)c(-c2cccc(OCCN3CCCC3=O)c2)c1CCOCC(O)CO (stereo not drawn) [Compound 196, 5-[2-(2,3-Dihydroxypropoxy)ethyl]-6-ethyl-4-{3-[2-(2-oxopyrrolidin-1-yl)ethoxy]phenyl}benzene-1,3-diol] | ≤ 50
30 | CCc1c(O)cc(O)c(-c2cccc(N)c2)c1CCOCC(O)CO (stereo not drawn) [Compound 197, 4-(3-Aminophenyl)-5-[2-(2,3-dihydroxypropoxy)ethyl]-6-ethylbenzene-1,3-diol] | ≤ 50
31 | CCc1c(O)cc(O)c(-c2ccccc2)c1CC(O)(CCCO)CCCO [Compound 199, 6-Ethyl-5-[2,5-dihydroxy-2-(3-hydroxypropyl)pentyl]-4-phenylbenzene-1,3-diol] | ≤ 50
32 | CCc1c(O)cc(O)c(-c2ccccc2)c1Cc1ocnc1C(=O)OC [Compound 200, Methyl 5-[(2-ethyl-3,5-dihydroxy-6-phenylphenyl)methyl]-1,3-oxazole-4-carboxylate] | ≤ 50
33 | CCc1c(O)cc(O)c(-c2cccc(NS(C)(=O)=O)c2)c1CCOCC(O)CO (stereo not drawn) [Compound 202, 6-Ethyl-5-[2-(2,3-dihydroxypropoxy)ethyl]-4-{3-[N-(methylsulfonyl)amino]phenyl}benzene-1,3-diol] | ≤ 50
34 | CCc1c(O)cc(O)c(-c2cccc(NS(=O)(=O)c3ccc(C)cc3)c2)c1CCOCC(O)CO (stereo not drawn) [Compound 203, 5-[2-(2,3-Dihydroxypropoxy)ethyl]-6-ethyl-4-{3-[N-(4-tolylsulfonyl)amino]phenyl}benzene-1,3-diol] | ≤ 50
35 | CCc1c(O)cc(O)c(-c2cccc(NC(C)=O)c2)c1CCOCC(O)CO (stereo not drawn) [Compound 204, 4-[3-(N-acetylamino)phenyl]-5-[2-(2,3-dihydroxypropoxy)ethyl]-6-ethylbenzene-1,3-diol] | ≤ 50
36 | CCc1c(O)cc(O)c(-c2cccc(NC(=O)c3ccccc3)c2)c1CCOCC(O)CO (stereo not drawn) [Compound 205, 4-[3-(N-benzoylamino)phenyl]-5-[2-(2,3-dihydroxypropoxy)ethyl]-6-ethylbenzene-1,3-diol] | ≤ 50
